Common to all, as to format: physicochemical
Series [1] is described as follows: Bulk stability (solid state, 1 week; HPLC, XRPD, IC, color). As to conditions: 25° C./92.5% RH open, 40° C./75% RH open, 60° C. tight container. The procedure:
Bulk stability of free form Pattern B was evaluated at 25° C./92.5% RH in an open container, at 40° C./75% RH in an open container and at 60° C. in a tight container over 1 week.

Series [2] in a line: Solubility at 37° C. in buffers and biorelevant media, XRPD of residual solid. The following applies: for XRPD of residual solid: 24 h; for solubility: thermodynamic from solid. Here is the method: Solubility of BAL-0748 free form Pattern B was investigated in pH 1.2 HCl buffer, pH 4.5 50 mM acetate buffer, pH 6.8 50 mM phosphate buffer, water, pH 1.6 FaSSGF, pH 6.5 FaSSIF-v1, pH 5.0 FeSSIF-v1 and 2% HPMC+1% Pluronic F68 in pH 4.5 50 mM acetate buffer at 37° C. for 2 h and 24 h. Residual solids after the solubility test were analyzed by XRPD.
Solubility of the free form Pattern A, the HCl salt Pattern A, the phosphate salt Pattern A, and the sodium salt Pattern A was measured in pH 1.2 HCl buffer, pH 4.5 acetate buffer (50 mM), pH 6.8 phosphate buffer (50 mM), water, pH 1.6 FaSSGF, pH 6.5 FaSSIF-v1, pH 5.0 FeSSIF-v1, and 2% HPMC+1% Pluronic F68 in pH 4.5 acetate buffer (50 mM) at 37° C. for 2 hours and 24 hours.
10.4 mg of the free form Pattern A, 10.0 mg of the free form Pattern B, 10.8 mg of the HCl salt Pattern A, 12.2 mg of the phosphate salt Pattern A, or 10.5 mg of the sodium salt Pattern A was weighed into a 20 mL glass vial, respectively. 5 mL of solubility medium was added. The salt amount used was equivalent to 10 mg anhydrous free form. Obtained suspensions were stirred at 37° C. at 400 rpm and sampled at 2 hours and at 24 hours. The samples were centrifuged at 37° C. at 14,000 rpm for 5 min. Supernatants were analyzed by HPLC and PH meter for solubility and pH value, respectively. Residual solids (wet cakes) from the 24 hours samples were also characterized by XRPD to determine physical form.

The nature of series [3]: Hygroscopicity by dynamic vapor sorption (DVS) at 25° C. As to conditions: DVS at 25° C. The procedure: Dynamic vapor sorption (DVS) was performed on an Intrinsic, Advantage or Adventure with an oven temperature of 25° C. using water as a solvent. The sample mass was about 5-10 mg using the following method: • Cycle: 40-0-95-0-40% RH • Stage Step: 10% • Equilibrium: 0.002 dm/dt (%/min) • Minimum dm/dt stability duration: 60 min • Maximum dm/dt stage time: 360 min. Hygroscopicity of free form Pattern B was evaluated by dynamic vapor sorption (DVS) test at 25° C. […] It absorbed about 0.8% water at 80% RH at 25° C.

Series [4] in a line: Exposure of Pattern C in ambient condition (variable temperature XRPD). As to conditions: 23° C., 27% RH. The procedure:
Pattern C is an anhydrate. It was obtained in variable temperature XRPD experiment by heating Pattern A to 100° C. under the nitrogen atmosphere. Pattern C is of high crystallinity. According to the DSC thermogram of Pattern A, Pattern C has a melting peak at Tonset of 134.2° C. Pattern C is a metastable form.

In brackets after ≈: the same amount, converted by molar mass.

By solubility is commonly meant the concentration that dissolves in the medium under given conditions. Take `CCOc1cc(C(=O)N(C)Cc2cnc(CO)c3cn[nH]c23)ccc1-c1cc(F)cc(F)c1` [Free form Pattern B, 2-ethoxy-3′,5′-difluoro-N-((4-(hydroxymethyl)-1H-pyrazolo[4,3-c]pyridin-7-yl)methyl)-N-methyl-[1,1′-biphenyl]-4-carboxamide]: in series [1], the “Bulk stability, chemical and physical” value was “physically and chemically stable”; the “Degradation by HPLC” value is reported as “no obvious degradation”; the “Form change by XRPD” value is “no form change”. For the same compound, the “XRPD of residual solid” value in series [2] (FaSSGF, pH 1.6, 37° C.) is reported as “hemi-HCl salt Pattern A”. Also, the “Form after the solubility test (XRPD)” value in series [2] (most of media) is “no form change or partially converted to free form Pattern A”. In series [2] (pH 1.2 HCl buffer, 37° C.), the “XRPD of residual solid” value was “Mono-HCl salt Pattern A”. In series [2] (other media (pH 4.5 acetate, pH 6.8 phosphate, water, FaSSIF-v1, HPMC/Pluronic), 37° C., 2 h and 24 h), this compound returned a solubility of 2 to 80 µg/mL (≈ 4.42 to 177 µM). The same compound came in with a solubility in series [2] (pH 1.2 HCl buffer, pH 1.6 FaSSGF and pH 5.0 FeSSIF-v1, 37° C.) of 100 to 600 µg/mL (≈ 221 to 1330 µM). In series [3], the Hygroscopicity entry is “slightly hygroscopic” and the “XRPD after DVS test” value is recorded as “still Pattern B”. In series [3] (80% RH), the “Water absorbed at 80% RH” value is “about 0.8%”.
As for `CCOc1cc(C(=O)N(C)Cc2cnc(CO)c3cn[nH]c23)ccc1-c1cc(F)cc(F)c1` [Pattern C, 2-ethoxy-3′,5′-difluoro-N-((4-(hydroxymethyl)-1H-pyrazolo[4,3-c]pyridin-7-yl)methyl)-N-methyl-[1,1′-biphenyl]-4-carboxamide], the “Form conversion after exposure in ambient condition” value in series [4] is reported as “converted to Pattern A”.

(Values after US20250084080A1, “CRYSTALLINE AND SALT FORMS OF AN NLRP3 INHIBITOR” (BioAge Labs, Inc., priority 2023, published 2025).)
